For assay [1], the target named is T1, human recombinant histamine H1 receptor (Homo sapiens, UniProt P35367).
T1 construct: expressed in transfected cells; host or cells: CHO-K1
As to the kind of experiment: Histamine H1 radioligand binding ([3H]Pyrilamine). To be noted: read-out: Histamine H1 Binding (1 μM), percent inhibition of specific binding; compound at 1 μM; 1.2 nM [3H]Pyrilamine. In short, it runs like this:
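Human recombinant H1 receptor expressed in CHO-K1 cells, in 50 mM Tris-HCl pH 7.4 with 2 mM MgCl2, 100 mM NaCl, 250 mM sucrose. Non-specific binding defined with 1 μM pyrilamine; bound [3H]pyrilamine counted after filtration and washing. Values are percent inhibition of specific binding.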

In assay [2] the target is T2, rat adrenergic α1A receptor (Rattus norvegicus, UniProt P43140).
T2 construct: rat adrenergic α1A receptor obtained from Wistar Rat submaxillary glands; from tissue; host or cells: Wistar rat submaxillary glands
T2 sequence (P43140 1-466): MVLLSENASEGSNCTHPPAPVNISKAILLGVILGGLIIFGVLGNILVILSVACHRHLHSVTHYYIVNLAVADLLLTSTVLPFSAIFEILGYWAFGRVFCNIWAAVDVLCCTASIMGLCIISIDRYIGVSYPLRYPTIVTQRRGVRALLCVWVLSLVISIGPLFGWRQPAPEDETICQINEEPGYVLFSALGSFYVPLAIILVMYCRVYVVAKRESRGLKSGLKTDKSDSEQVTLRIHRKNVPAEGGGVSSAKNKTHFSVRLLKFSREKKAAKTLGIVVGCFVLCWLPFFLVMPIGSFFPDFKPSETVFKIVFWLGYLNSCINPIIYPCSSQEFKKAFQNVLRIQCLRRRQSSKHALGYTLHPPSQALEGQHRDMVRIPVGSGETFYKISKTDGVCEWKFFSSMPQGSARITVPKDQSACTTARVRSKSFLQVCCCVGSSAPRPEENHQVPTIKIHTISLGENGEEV
As to the kind of experiment: Adrenergic α1A radioligand binding ([3H]Prazosin). As to conditions: read-out: Adrenergic (0.1 μM) a1A, percent inhibition of specific binding; compound at 0.1 μM; 0.25 nM [3H]Prazosin. In short, it runs like this: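 Wistar rat submaxillary gland receptor in 50 mM Tris-HCl pH 7.4 with 0.5 mM EDTA, incubated with compound and 0.25 nM [3H]Prazosin for 60 min at 25 °C.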

Assay [3] concerns the target T3, human recombinant adrenergic α2C receptor (Homo sapiens, UniProt P18825).
T3 construct: expressed in transfected cells; host or cells: insect Sf9 cells
T3 sequence (P18825 1-462): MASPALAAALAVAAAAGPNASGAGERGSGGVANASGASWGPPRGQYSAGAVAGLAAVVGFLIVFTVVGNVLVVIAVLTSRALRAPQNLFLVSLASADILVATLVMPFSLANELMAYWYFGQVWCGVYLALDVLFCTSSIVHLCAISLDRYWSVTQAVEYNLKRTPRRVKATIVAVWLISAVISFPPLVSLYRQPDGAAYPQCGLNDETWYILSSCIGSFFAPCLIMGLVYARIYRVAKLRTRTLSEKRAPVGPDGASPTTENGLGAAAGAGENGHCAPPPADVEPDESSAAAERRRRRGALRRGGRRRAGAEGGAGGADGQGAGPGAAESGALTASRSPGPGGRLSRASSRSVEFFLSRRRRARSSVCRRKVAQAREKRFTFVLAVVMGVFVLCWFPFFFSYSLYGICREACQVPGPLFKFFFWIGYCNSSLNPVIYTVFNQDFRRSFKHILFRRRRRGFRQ
In words: Adrenergic α2C radioligand binding ([3H]MK-912). To be noted: read-out: Adrenergic (0.1 μM) a2C, percent inhibition of specific binding; compound at 0.1 μM; 1 nM [3H]MK-912. In short, it runs like this:
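Membranes from Sf9 cells expressing the human receptor, in 50 mM Tris-HCl pH 7.4 with 12.5 mM MgCl2 and 2 mM EDTA, incubated with compound and 1 nM [3H]MK-912 for 60 min at 25 °C. Non-specific binding defined with 10 μM WB-4101. Filter-bound radioactivity counted; percent inhibition of specific binding reported.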

The target in assay [4] is T4, human recombinant dopamine D2L receptor (Homo sapiens, UniProt P14416).
T4 construct: expressed in transfected cells; host or cells: CHO
As to the kind of experiment: Dopamine D2L radioligand binding ([3H]Spiperone). To be noted: read-out: Dopamine D2L (1 μM), percent inhibition of specific binding; compound at 1 μM; 0.16 nM [3H]Spiperone. On the procedure: Non-specific binding was estimated in the presence of 10 μM Haloperidol. Receptor proteins were filtered and washed, the filters were then counted to determine [^3H]Spiperone specifically bound.

The target in assay [5] is T5, human recombinant serotonin (5-Hydroxytryptamine) 5-HT2A receptor (Homo sapiens, UniProt P28223).
T5 construct: expressed in transfected cells; host or cells: CHO-K1
In words: Serotonin 5-HT2A radioligand binding ([3H]Ketanserin). To be noted: compound at 0.1 μM; read-out: Inhibition of ligand binding, Serotonin 5-HT2A (percent inhibition of specific binding). The procedure:
Compounds of the invention were incubated with 0.5 nM [^3H]Ketanserin for 60 min at 25° C. Non-specific binding was estimated in the presence of 1 μM Mianserin. Receptor proteins were filtered and washed, the filters were then counted to determine [^3H]Ketanserin specifically bound.

For assay [6], the target named is T6, human recombinant serotonin (5-Hydroxytryptamine) 5-HT6 receptor (Homo sapiens, UniProt P50406).
T6 construct: expressed in transfected cells; host or cells: HeLa
In words: Serotonin 5-HT6 radioligand binding ([3H]LSD). To be noted: compound at 0.1 μM; read-out: Inhibition of ligand binding, Serotonin 5-HT6 (percent inhibition of specific binding). An excerpt:
Receptor proteins were filtered and washed, the filters were then counted to determine [3H]LSD specifically bound.

Assay [7] deals with T7, human recombinant serotonin (5-Hydroxytryptamine) 5-HT7 receptor (Homo sapiens, UniProt P34969).
T7 construct: expressed in transfected cells; host or cells: CHO
As to the kind of experiment: Serotonin 5-HT7 radioligand binding ([3H]LSD). As to conditions: compound at 0.1 μM; read-out: Inhibition of ligand binding, Serotonin 5-HT7 (percent inhibition of specific binding). The procedure: Lysergic acid diethylamide (LSD) for 120 min. at 25° C. […] Receptor proteins were filtered and washed, the filters were then counted to determine [^3H]LSD specifically bound.

T5 sequence (P28223 whole entry): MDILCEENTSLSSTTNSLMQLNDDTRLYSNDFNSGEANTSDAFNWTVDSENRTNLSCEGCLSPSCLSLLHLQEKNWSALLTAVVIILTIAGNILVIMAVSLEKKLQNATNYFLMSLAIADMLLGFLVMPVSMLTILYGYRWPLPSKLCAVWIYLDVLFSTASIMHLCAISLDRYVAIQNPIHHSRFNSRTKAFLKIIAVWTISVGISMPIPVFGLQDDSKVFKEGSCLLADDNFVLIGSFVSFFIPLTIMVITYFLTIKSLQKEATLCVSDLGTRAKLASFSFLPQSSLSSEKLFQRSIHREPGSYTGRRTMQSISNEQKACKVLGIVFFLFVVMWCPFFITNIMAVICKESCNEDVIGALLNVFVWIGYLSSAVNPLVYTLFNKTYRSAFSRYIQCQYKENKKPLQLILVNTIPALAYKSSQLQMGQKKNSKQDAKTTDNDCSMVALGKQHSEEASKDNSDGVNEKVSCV
T6 sequence (P50406 whole entry): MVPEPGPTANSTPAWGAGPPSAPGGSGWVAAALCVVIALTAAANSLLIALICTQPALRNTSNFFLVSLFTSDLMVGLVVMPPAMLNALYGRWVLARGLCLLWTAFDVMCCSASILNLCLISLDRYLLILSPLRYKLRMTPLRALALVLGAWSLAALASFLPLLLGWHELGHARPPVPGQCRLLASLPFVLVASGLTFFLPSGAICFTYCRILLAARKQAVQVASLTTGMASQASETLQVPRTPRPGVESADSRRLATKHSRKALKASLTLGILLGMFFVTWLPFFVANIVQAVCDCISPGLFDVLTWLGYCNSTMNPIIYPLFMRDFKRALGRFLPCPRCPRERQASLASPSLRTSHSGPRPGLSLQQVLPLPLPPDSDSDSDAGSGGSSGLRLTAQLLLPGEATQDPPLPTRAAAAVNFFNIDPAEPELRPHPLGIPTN
T7 sequence (P34969 whole entry): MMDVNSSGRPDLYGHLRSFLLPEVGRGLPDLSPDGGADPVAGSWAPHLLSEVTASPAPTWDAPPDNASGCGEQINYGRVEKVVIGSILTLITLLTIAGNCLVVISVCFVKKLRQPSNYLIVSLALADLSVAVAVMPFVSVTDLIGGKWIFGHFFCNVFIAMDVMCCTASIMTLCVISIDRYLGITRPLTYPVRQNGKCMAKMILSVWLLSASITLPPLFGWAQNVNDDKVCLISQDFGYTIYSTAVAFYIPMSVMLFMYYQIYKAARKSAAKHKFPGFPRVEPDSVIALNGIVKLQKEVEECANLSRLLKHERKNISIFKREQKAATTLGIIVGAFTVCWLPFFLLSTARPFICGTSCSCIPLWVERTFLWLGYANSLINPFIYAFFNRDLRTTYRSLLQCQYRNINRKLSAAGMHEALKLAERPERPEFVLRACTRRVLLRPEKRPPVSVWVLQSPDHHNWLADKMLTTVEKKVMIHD
T1 sequence (P35367 whole entry): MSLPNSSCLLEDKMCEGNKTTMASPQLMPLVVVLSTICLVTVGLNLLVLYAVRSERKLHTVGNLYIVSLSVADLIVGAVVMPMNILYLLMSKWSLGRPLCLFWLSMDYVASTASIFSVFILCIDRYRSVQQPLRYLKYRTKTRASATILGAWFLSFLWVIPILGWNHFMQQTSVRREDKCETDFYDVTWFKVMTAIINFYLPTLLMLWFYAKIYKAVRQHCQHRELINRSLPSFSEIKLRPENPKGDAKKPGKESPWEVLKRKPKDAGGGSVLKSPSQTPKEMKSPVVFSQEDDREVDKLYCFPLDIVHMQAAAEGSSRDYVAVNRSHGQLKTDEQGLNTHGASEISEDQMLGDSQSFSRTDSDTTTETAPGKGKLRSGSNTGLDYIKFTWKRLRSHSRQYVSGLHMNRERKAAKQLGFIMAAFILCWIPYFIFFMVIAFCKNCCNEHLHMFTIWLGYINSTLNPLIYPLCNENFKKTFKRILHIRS
T4 sequence (P14416 whole entry): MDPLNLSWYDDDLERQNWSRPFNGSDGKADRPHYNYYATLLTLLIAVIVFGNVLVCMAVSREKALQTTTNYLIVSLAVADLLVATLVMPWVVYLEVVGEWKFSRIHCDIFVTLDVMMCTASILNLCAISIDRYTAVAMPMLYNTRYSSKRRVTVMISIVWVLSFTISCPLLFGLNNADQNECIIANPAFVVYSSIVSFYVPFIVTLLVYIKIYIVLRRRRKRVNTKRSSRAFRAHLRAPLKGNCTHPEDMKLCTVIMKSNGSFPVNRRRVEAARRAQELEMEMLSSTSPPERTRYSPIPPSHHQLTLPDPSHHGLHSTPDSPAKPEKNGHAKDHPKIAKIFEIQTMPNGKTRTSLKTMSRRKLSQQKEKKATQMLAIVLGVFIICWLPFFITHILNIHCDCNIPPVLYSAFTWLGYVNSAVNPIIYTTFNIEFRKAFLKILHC

For orientation: inhibition means the change of the read-out against control, counted positive when it falls. As to `Cc1ccc2c(c1)c1c(n2-c2ccccc2-c2cc3ccccc3s2)CCN(C)C1` [Compound No. 103, 5-(2-(benzo[b]thiophen-2-yl)phenyl)-2,8-dimethyl-2,3,4,5-tetrahydro-1H-pyrido[4,3-b]indole], the inhibition at 1 µM in assay [1] and in assay [4] was 10% in each case. Also, the inhibition at 0.1 µM stood at 44% in assay [2]; 69% in assay [3]; 24% in assay [5]; 20% in assay [6]; 39% in assay [7].
`Cc1ccc2c(c1)c1c(n2-c2ccccc2-c2sccc2C)CCN(C)C1` [Compound No. 102, 2,8-dimethyl-5-(2-(3-methylthiophen-2-yl)phenyl)-2,3,4,5-tetrahydro-1H-pyrido[4,3-b]indole]: the inhibition at 1 µM is 57% in assay [1] and 48% in assay [4]. The inhibition at 0.1 µM worked out at 28% in assay [2]; 43% in assay [3]; 92% in assay [5]; 42% in assay [6]; 34% in assay [7].
Consider `Cc1ccc2c(c1)c1c(n2-c2ccccc2-c2cnn(C)c2)CCN(C)C1` [Compound No. 86, 2,8-dimethyl-5-(2-(1-methyl-1H-pyrazol-4-yl)phenyl)-2,3,4,5-tetrahydro-1H-pyrido[4,3-b]indole], for which the inhibition at 1 µM was determined as 47% in assay [1] and 6% in assay [4]. In addition, the inhibition at 0.1 µM in assay [2] was 17%; in assay [3], 0%; in assay [5] it was 94%; in assay [6], 11%; in assay [7], 53%.
Consider `Cc1ccc2c(c1)c1c(n2-c2ccccc2-c2cncc3ccccc23)CCN(C)C1` [Compound No. 87, 5-(2-(isoquinolin-4-yl)phenyl)-2,8-dimethyl-2,3,4,5-tetrahydro-1H-pyrido[4,3-b]indole], for which the values for the inhibition at 1 µM in assay [1] and in assay [4] were 47% and 10%, respectively. The inhibition at 0.1 µM is 8% in assay [2]; -6% in assay [3]; 70% in assay [5]; 13% in assay [6]; 14% in assay [7].
Consider `Cc1ccc2c(c1)c1c(n2-c2ccccc2-c2cccn2C)CCN(C)C1` [Compound No. 100, 2,8-dimethyl-5-(2-(1-methyl-1H-pyrrol-2-yl)phenyl)-2,3,4,5-tetrahydro-1H-pyrido[4,3-b]indole], for which the values for the inhibition at 1 µM in assay [1] and in assay [4] were 36% and 11%, respectively. Further, the inhibition at 0.1 µM came out at 46% in assay [2]; 66% in assay [3]; 74% in assay [5]; 26% in assay [6]; 48% in assay [7].
For the molecule `Cc1ccc2c(c1)c1c(n2-c2cnc3ccccc3c2)CCN(C)C1` [Compound No. 88, 2,8-dimethyl-5-quinolin-3-yl-2,3,4,5-tetrahydro-1H-pyrido[4,3-b]indole], the inhibition at 1 µM came out at 18% in assay [1] and 7% in assay [4]. In addition, the inhibition at 0.1 µM in assay [2] is 20%; in assay [3], 4%; in assay [5] it was 93%; in assay [6] it was 4%; in assay [7], 13%.
As for `Cc1ccc2c(c1)c1c(n2-c2ccccc2-c2cn[nH]c2)CCN(C)C1` [Compound No. 104, 5-(2-(1H-pyrazol-4-yl)phenyl)-2,8-dimethyl-2,3,4,5-tetrahydro-1H-pyrido[4,3-b]indole], the inhibition at 1 µM in assay [1] is 24%; in assay [4], -1%. The inhibition at 0.1 µM came out at 4% in assay [2]; 1% in assay [3]; 57% in assay [5]; 10% in assay [6]; 27% in assay [7].
In the case of `Cc1ccc2c(c1)c1c(n2-c2ccccc2-c2cccc3[nH]ncc23)CCN(C)C1` [Compound No. 105, 5-(2-(1H-indazol-4-yl)phenyl)-2,8-dimethyl-2,3,4,5-tetrahydro-1H-pyrido[4,3-b]indole], the inhibition at 1 µM in assay [1] was 34%; in assay [4], 3%. The inhibition at 0.1 µM came to 55% in assay [2]; 45% in assay [3]; 94% in assay [5]; 40% in assay [6]; 54% in assay [7].

Source of the values: US9187471B2, “Pyrido [4,3-b] indole and pyrido [3,4-b] indole derivatives and methods of use” (Medivation Technologies, Inc., priority 2010, dated 2015).
